From US20060029967A1, “Assay for nitrous oxide neurologic syndrome” (priority 2002, published 2006)

Experiments:
[1] = biological target: T1, methionine synthase (Homo sapiens, UniProt Q99707); assay: Case report: infant with MTHFR deficiency anesthetized with nitrous oxide; format: in vivo; parameters: from tissue; host or cells: patient in vivo; no tissue assayed for methionine synthase; conditions: infant with inherited MTHFR deficiency; two anesthetics with 60% nitrous oxide and 0.75% halothane (45 and 270 minutes)
T1 sequence (Q99707 whole entry): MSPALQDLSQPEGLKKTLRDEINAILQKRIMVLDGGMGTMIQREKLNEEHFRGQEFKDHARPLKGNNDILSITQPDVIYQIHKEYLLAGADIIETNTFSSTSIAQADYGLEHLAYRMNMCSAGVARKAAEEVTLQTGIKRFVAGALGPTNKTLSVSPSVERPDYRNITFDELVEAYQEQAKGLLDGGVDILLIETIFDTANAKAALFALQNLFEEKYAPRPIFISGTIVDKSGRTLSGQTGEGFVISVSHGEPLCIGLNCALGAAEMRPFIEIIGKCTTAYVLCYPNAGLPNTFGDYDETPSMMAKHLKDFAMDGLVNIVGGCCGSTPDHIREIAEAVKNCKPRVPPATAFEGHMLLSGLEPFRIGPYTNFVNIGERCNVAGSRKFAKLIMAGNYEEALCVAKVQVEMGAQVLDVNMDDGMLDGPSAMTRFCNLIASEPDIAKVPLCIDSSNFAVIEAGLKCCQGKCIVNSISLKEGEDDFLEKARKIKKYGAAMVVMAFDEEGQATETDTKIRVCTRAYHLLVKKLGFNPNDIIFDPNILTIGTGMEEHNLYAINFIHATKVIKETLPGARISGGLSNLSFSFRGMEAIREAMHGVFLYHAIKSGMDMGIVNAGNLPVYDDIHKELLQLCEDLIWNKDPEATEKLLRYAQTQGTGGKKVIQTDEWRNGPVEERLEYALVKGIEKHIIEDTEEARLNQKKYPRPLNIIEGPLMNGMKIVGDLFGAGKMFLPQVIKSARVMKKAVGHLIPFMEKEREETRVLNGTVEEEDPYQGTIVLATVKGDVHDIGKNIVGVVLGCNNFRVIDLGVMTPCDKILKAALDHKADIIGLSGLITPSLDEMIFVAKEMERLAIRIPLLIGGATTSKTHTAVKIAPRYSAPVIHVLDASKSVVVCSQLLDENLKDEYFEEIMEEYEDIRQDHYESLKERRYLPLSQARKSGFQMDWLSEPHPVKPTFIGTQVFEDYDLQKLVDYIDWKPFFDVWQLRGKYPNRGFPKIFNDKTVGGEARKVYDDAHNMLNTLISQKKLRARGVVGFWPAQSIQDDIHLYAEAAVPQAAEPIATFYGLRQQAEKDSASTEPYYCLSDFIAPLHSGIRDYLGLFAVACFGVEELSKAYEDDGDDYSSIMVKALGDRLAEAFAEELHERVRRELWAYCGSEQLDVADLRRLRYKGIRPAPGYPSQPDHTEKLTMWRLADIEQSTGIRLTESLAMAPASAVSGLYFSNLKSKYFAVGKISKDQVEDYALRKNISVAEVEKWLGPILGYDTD
Source text: A child discovered to have 5,10-methylenetetrahydrofolate reductase (MTHFR, […]) deficiency (OMIM #236250) died after two anesthetics using nitrous oxide (Beckman, D. R., et al., Birth Defects Orig. Artic. Ser. 23:47-64, 1987). MTHFR catalyzes the synthesis of 5-methyltetrahydrofolate. Sequence analysis of RNA transcripts and genomic DNA from the patient and family members, together with direct assays of fibroblast MTHFR activity, reveal that the enzyme deficiency was caused by a novel MTHFR mutation (1755→A) which changes conserved methionine 581 to an isoleucine, co-inherited with two common MTHFR polymorphisms (677C→T, 1298A→C) each associated with depressed enzyme function. (Frosst, P., et al., Nat. Genet. 10:111-3, 1995; van der Put, N. M., et al., Am. J. Hum. Genet. 62:1044-51, 1998).
The patient was normal […] when a mass was noted on the left lower extremity. Although not recognized prior to the patient's surgery, both the parent and uncle have serum total homocysteine levels >30.0 μM (normal 5.4-13.9 μM). On life-long, high dose vitamin B supplements, the proband's sibling has a homocysteine level of 4.3 μM. Neither the […] nor the sibling has received nitrous oxide. […]

[2] = tested on: methionine synthase; conditions: pigs exposed to nitrous oxide; cited from earlier work
[3] = biological target: methionine synthase (Rattus norvegicus, UniProt Q9Z2Q4); conditions: rats exposed to nitrous oxide; cited from earlier work
Chain of methionine synthase (Rattus norvegicus, UniProt Q9Z2Q4) (Q9Z2Q4 whole entry): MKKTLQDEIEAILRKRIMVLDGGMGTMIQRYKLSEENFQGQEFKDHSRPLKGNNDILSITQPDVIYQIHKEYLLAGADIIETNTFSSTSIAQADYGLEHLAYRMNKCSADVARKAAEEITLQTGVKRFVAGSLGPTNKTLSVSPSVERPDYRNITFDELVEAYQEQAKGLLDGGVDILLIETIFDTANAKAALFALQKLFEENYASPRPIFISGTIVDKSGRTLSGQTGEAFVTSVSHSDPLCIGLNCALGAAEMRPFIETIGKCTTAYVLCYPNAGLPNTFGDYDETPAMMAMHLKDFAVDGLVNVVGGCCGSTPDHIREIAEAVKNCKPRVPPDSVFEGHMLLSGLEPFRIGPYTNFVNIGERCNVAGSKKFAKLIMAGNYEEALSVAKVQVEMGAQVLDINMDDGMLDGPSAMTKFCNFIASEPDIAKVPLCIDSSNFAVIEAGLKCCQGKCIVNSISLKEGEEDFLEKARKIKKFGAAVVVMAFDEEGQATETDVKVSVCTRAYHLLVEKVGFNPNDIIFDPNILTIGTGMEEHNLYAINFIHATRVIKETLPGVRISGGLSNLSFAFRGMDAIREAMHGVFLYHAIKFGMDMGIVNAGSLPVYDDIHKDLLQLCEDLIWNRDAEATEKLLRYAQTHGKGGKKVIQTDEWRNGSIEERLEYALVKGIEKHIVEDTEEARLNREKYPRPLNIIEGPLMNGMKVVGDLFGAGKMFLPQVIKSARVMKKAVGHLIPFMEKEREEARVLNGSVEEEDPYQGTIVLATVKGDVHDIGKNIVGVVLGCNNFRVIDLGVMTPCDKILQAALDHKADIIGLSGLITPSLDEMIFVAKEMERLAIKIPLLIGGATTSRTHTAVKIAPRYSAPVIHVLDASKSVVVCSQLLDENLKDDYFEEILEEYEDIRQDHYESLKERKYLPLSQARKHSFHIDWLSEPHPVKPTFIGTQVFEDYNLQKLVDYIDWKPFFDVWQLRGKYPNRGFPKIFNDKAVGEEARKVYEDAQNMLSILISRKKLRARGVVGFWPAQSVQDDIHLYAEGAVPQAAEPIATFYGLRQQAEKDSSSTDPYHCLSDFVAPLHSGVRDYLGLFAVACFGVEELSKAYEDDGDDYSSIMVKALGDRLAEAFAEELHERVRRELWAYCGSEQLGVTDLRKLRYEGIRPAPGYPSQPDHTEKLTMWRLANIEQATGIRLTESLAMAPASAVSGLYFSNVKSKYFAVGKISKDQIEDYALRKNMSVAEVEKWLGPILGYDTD

[4] = biological target: methionine synthase (Mus musculus, UniProt A6H5Y3); conditions: mice exposed to nitrous oxide; cited from earlier work
Chain of methionine synthase (Mus musculus, UniProt A6H5Y3) (A6H5Y3 whole entry): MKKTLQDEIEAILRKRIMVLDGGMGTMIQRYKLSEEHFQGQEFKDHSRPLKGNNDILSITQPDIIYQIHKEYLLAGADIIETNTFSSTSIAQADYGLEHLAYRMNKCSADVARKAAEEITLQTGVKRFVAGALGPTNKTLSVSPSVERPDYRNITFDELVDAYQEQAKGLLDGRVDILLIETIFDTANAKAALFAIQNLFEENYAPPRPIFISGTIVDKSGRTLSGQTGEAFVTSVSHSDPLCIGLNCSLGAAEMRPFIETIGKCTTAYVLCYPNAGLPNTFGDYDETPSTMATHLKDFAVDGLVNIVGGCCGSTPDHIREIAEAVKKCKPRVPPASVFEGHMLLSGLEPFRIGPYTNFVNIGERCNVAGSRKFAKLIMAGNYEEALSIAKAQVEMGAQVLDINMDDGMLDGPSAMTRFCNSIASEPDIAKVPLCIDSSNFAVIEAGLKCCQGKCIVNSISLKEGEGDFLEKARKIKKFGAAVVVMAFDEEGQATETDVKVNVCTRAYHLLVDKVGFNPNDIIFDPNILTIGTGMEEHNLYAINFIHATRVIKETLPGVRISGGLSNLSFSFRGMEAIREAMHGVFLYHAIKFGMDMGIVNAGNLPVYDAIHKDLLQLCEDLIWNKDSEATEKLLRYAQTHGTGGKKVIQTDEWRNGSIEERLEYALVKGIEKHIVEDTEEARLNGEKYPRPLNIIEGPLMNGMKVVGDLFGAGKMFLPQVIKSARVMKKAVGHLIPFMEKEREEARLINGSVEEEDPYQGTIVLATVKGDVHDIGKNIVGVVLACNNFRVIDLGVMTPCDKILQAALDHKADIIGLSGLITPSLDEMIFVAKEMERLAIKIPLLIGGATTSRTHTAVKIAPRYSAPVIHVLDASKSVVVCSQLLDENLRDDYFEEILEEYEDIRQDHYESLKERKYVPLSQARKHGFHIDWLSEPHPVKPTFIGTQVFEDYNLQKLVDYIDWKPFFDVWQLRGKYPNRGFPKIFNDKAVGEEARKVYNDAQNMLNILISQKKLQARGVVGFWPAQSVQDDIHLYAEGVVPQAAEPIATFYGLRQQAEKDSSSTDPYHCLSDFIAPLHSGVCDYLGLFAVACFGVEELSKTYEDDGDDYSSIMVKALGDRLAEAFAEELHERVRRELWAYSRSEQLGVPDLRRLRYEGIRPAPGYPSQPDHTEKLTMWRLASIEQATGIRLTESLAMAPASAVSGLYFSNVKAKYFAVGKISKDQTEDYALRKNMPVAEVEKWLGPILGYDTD

[5] = biological target: T1, methionine synthase; conditions: cited from earlier work
[6] = biological target: T1, methionine synthase; conditions: recovery in cultured cells; de novo synthesis of the enzyme required to restore activity; cited from earlier work

[N-]=[N+]=O [nitrous oxide]
clinical outcome after nitrous oxide anesthesia [1]: caused the patient's death
delayed recovery of enzyme activity [2]: ≥ 4 days
delayed recovery of enzyme activity [3]: ≥ 4 days
delayed recovery of enzyme activity [4]: ≥ 4 days
Residual methionine synthase activity ([5]; following greater than 200 minutes of nitrous oxide administration): approaches zero
mean half-time of inactivation of methionine synthase ([5]; nitrous oxide administration): 46 min
nature of nitrous oxide-mediated inhibition [6]: irreversible
